According to patent US12016847B2, “Methods of treating prostate cancer” (Bristol-Myers Squibb Company, priority 2021, dated 2024):

How the values were obtained:
[1] = tested on: MYC; test: Gene expression analysis (qPCR), MYC in VCaP cells; type: cell-based; details: 48 h
Procedure: (§1) VCaP, LNCaP, 22Rv.1, DU145 and PC3 cancer cell lines were obtained from ATCC. VCaP were cultured in DMEM media supplemented with 8% FBS, LNCaP, 22Rv.1 and DU145 were cultured in RPMI1640 media supplemented with 10% FBS, and PC3 were cultured in F12K media supplemented with 10% FBS.
(§2) Cells were plated in a 6-well format and were allowed to adhere 24 h before treatment. Cells were treated for 48 h before collecting them. RNA was purified from cells using the RNeasy kit (Qiagen) according to the manufacturer's instructions. Quantitative RTPCR was performed using the TaqMan assay (Thermo Fisher Scientific) on the ABI QuantStudio 7 Flex Real-Time PCR System.

[2] = tested on: HEXIM1; test: Gene expression analysis (qPCR), HEXIM1 in 22Rv.1 cells; type: cell-based; details: 48 h
Procedure: as §1, §2

[3] = tested on: KLK3; test: Gene expression analysis (qPCR), KLK3 in VCaP cells; type: cell-based; details: 48 h
Procedure: as §1, §2

[4] = tested on: PC3 cells; test: Proliferation assay (Cell Titer-Glo), PC3 cells; type: cell-based; details: 3 days
Procedure: as §1
(§3) Cells were plated in a 96-well format and were allowed to adhere 24 h before treatment. Drugs were titrated 1:3 from 1 μM to 0.1 nM with 9 doses in triplicate. Cell proliferation was measured on the day of treatment (Day 0) and on Day 3 using Cell Titer-Glo reagent (Promega) according to the manufacturer's instructions. Cell growth normalized to the DMSO vehicle control and to Day 0 was fitted by nonlinear regression using GraphPad Prism 7.03 (GraphPad Software, Inc.).

[5] = tested on: MYC; test: Gene expression analysis (qPCR), MYC in 22Rv.1 cells; type: cell-based; details: 48 h
Procedure: as §1, §2

[6] = tested on: VCaP cells; test: Proliferation assay (Cell Titer-Glo), VCaP cells; type: cell-based; details: 3 days
Procedure: as §1, §3

[7] = tested on: DU145 cells; test: Proliferation assay (Cell Titer-Glo), DU145 cells; type: cell-based; details: 3 days
Procedure: as §1, §3

[8] = tested on: LNCaP cells; test: Proliferation assay (Cell Titer-Glo), LNCaP cells; type: cell-based, human; details: 3 days of treatment, at 1 uM, related to Day 0 and DMSO
Procedure: as §1, §3

[9] = tested on: 22Rv.1 cells; test: Proliferation assay (Cell Titer-Glo), 22Rv.1 cells; type: cell-based; details: Homo sapiens, 22Rv1, 72 h, 3 days
Procedure: as §1, §3

[10] = tested on: Neuroendocrine prostate cancer models; test: Proliferation assay, all Neuroendocrine prostate cancer models tested (summary); type: cell-based; details: DU145 and PC3 models, summary statement
Procedure: as §1, §3

[11] = tested on: KLK3; test: Gene expression analysis (qPCR), KLK3 in 22Rv.1 cells; type: cell-based; details: 48 h
Procedure: as §1, §2

[12] = tested on: KLK3; test: Gene expression analysis (qPCR), KLK3 in LNCaP cells; type: cell-based, human; details: 48 h
Procedure: as §1, §2

[13] = tested on: MYC; test: Gene expression analysis (qPCR), MYC in LNCaP cells; type: cell-based, human; details: 48 h
Procedure: as §1, §2

[14] = tested on: HEXIM1; test: Gene expression analysis (qPCR), HEXIM1 in VCaP cells; type: cell-based; details: 48 h
Procedure: as §1, §2

[15] = tested on: HEXIM1; test: Gene expression analysis (qPCR), HEXIM1 in LNCaP cells; type: cell-based, human; details: 48 h
Procedure: as §1, §2

[16] = tested on: TMPRSS2; test: Gene expression analysis (qPCR), TMPRSS2 in 22Rv.1 cells; type: cell-based; details: 48 h
Procedure: as §1, §2

[17] = tested on: TMPRSS2; test: Gene expression analysis (qPCR), TMPRSS2 in VCaP cells; type: cell-based; details: 48 h
Procedure: as §1, §2

## Cc1nnn(C)c1-c1cnc2c3ccc(C(C)(C)O)cc3n([C@H](c3ccccc3)C3CCOCC3)c2c1 [Compound A, 2-[3-(1,4-dimethyl-1H-1,2,3-triazol-5-yl)-5-[(S)-(oxan-4-yl)(phenyl)methyl]-5H-pyrido[3,2-b]indol-7-yl]propan-2-ol]
[1]; 4 nM
  reduction in MYC expression: 91.4%
[1]; 40 nM
  MYC downregulation: 95.7%
[2]; 4 nM
  induction of HEXIM1: 31%
[2]; 40 nM
  upregulation of HEXIM1: 91.5%
[3]; 4 nM
  downregulation of KLK3 compared to DMSO: 96.9%
[3]; 40 nM
  downregulation of KLK3 compared to DMSO: 99.4%
[4]
  reduction of PC3 proliferation: 67%
[4]; Homo sapiens, PC-3, 72 h
  IC50: 4.1 nM
[5]; 4 nM
  downregulation of MYC: 98.5%
[5]; 40 nM
  downregulation of MYC: 99.3%
[6]; at 0.1 uM, related to Day 0 and DMSO
  growth arrest of VCaP proliferation: 100%
[6]; at the highest concentrations
  cytotoxic effect on VCaP cells: cytotoxic effects
[7]
  reduction of DU145 proliferation: 61.9%
[8]
  growth arrest of LNCaP cells: 100%
[9]
  IC50: 1.7 nM
[10]
  reduction of cell proliferation in all Neuroendocrine prostate cancer models tested: ≥ 61.9%
[11]; 4 nM
  downregulation of KLK3: 99.9%
[11]; 40 nM
  downregulation of KLK3: 99.8%
[12]; 4 nM
  downregulation of KLK3: 58.8%
[12]; 40 nM
  downregulation of KLK3: 92.0%
[13]; 4 nM
  downregulation of MYC: 84.1%
[13]; 40 nM
  downregulation of MYC: 93.6%
[14]; 4 nM
  HEXIM1 upregulated compared to DMSO: 968.0%
[14]; 40 nM
  HEXIM1 upregulated compared to DMSO: 1257.5%
[15]; 4 nM
  upregulation of HEXIM1: 446.8%
[15]; 40 nM
  upregulation of HEXIM1: 533.3%
[16]; 4 nM
  reduction of TMPRSS2 compared to DMSO: 97.0%
[16]; 40 nM
  reduction of TMPRSS2 compared to DMSO: 97.8%
[17]; 4 nM
  downregulation of TMPRSS2: 32.8%
[17]; 40 nM
  downregulation of TMPRSS2: 51.9%
